IC50 and ring closure, yield of all isomers data for 15 compounds are collected here from patent US7678784B2, “Oxime-containing macrocyclic acyl guanidines as β-secretase inhibitors” (Bristol-Myers Squibb Company, priority 2006, dated 2010).

Each structure is given as a SMILES string. Read-outs that look alike come from different tables or passages of the source.

The target in series [1] is T1, BACE1 enzyme (Homo sapiens, UniProt P56817).
T1 construct: The HEK293-9B.A1 cell line, which overexpresses the BACE1 enzyme, was derived from HEK293 cells; endogenous in cells; washed 48,000 x g pellet of cell homogenate
T1 sequence (P56817 46-501): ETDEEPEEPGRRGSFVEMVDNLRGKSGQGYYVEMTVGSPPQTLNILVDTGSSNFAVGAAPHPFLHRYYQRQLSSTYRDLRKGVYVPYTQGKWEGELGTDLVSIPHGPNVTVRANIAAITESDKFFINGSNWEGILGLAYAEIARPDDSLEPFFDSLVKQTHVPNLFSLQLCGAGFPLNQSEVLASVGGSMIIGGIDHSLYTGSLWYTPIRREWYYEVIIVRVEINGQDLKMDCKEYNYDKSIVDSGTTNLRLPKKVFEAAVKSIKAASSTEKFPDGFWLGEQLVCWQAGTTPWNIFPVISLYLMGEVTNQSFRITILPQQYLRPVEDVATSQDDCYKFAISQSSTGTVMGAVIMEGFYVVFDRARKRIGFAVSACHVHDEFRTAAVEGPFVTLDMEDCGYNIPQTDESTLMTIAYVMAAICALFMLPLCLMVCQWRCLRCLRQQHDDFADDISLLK
The series can be described thus: Radioligand displacement assay with a radiolabeled BACE inhibitor on HEK293-9B.A1 cell homogenate. Particulars: displacement of 1 nM tritiated radioligand, HEK293-9B.A1 homogenate, pH 5.0, 1.5 hr at 25° C.; read-out: Activity Rating (Activity based on IC50 values). It counts as binding. The source says: There are a number of methods by which inhibitors of the BACE enzyme can be identified experimentally. The enzyme can be obtained from membrane samples from natural tissues or cultured cells or can be expressed recombinantly in a host cell by well known methods of molecular biology. The whole enzyme or a portion thereof can be expressed, for example, in bacterial, insect or mammalian cells to obtain a catalytically active enzyme species. The enzymatic activity and/or ligand binding capability of the enzyme can be assessed within these membrane samples, or the enzyme can be purified to varying extents. As an illustrative example, the nucleic acid sequence encoding the pro and catalytic domains of human BACE can be appended on the 5′ end with an untranslated and signal sequence from the gene for acetylcholinesterase, and on the 3′ end with a sequence encoding a poly-histidine tag. This cDNA can then be expressed in Drosophila melanogaster S2 cells in which the signal and pro sequences of the transcribed/translated protein are removed by cellular proteases and the catalytic domain, appended by a C-terminal poly-histidine tag, is secreted out into the cellular medium. The enzyme can then be purified from the culture medium by nickel affinity chromatography by methods well known to those trained in the art [Mallender, W. et al., “Characterization of recombinant, soluble beta-secretase from an insect cell expression system.” Mol. Pharmacol. 2001, 59: 619-626]. Similar strategies for expressing and purifying various forms of BACE in bacterial, mammalian and other cell types would be known to one skilled in the art. A preferred method for determining the potency of a test compound in binding to the BACE enzyme is by monitoring the displacement of a suitable radioligand.
Radioligand displacement assays with a radiolabeled BACE inhibitor (WO 2004 013098, compound 3, where the methoxy group is substituted for C(^3H)3) were carried out using standard methods (Keen, M. (1999) in Receptor Binding Techniques (Walker, J. M. ed) p. 106 Humana Press, Totowa, N.J.). The HEK293-9B.A1 cell line, which overexpresses the BACE1 enzyme, was derived from HEK293 cells (Simmons, N. L. (1990) A cultured human renal epitheloid cell line responsive to vasoactive intestinal peptide. Exp. Physiol. 75:309-19.) by RAGE™ M (Harrington, J. J. et al. (2001) Creation of genome-wide protein expression libraries using random activation of gene expression. Nat. Biotechnol. 19:440-5; U.S. Pat. Nos. 6,410,266 and 6,361,972). T225 flask cultures of HEK293-9B.A1 were grown to 80% confluency in DMEM supplemented with 2 mM L-glutamine, 10 μg/ml penicillin, 10 μg/ml streptomycin, 3 μg/ml puromycin, 100 nM methotrexate, and 10% fetal bovine serum (Invitrogen, Carlsbad, Calif.), harvested, and resuspended at 2×10^8 cells per 10 ml of lysis buffer consisting of 50 mM HEPES pH 7.0 containing a protease inhibitor cocktail of AEBSF 104 μM, aprotinin 80 nM, leupeptin 2 μM, bestatin 4 μM, pepstatin A 1.5 μM, and E-64 1.4 μM (0.1% of protease inhibitor cocktail P8340, Sigma-Aldrich, St. Louis, Mo.) at 4° C. The resuspended cells were homogenized using a Polytron (Brinkman, Westbury, N.Y.) at setting 6 for 10 sec., then centrifuged at 48,000×g for 10 min. The resulting pellet was washed by repeating the resuspension, homogenization and centrifugation steps. The final pellet was resuspended in buffer at 4° C. to yield a total protein concentration of 5 mg/ml, then aliquots were frozen in liquid nitrogen for further storage at −70° C. Immediately before carrying out a binding assay, an aliquot of cell homogenate was thawed and diluted to a concentration of 100 μg/ml in assay buffer consisting of 50 mM HEPES pH 5.0 and 0.1% CHAPSO. […]

The conditions of series [2]: rcm bond, Grubbs 1st generation catalyst, dichloromethane, 65.0 °C.

For orientation: IC50 means the concentration needed to halve the response being measured. Consider `CCON=C1CC(=O)N=C(N)NCc2cc(Cl)c(c(Cl)c2)NC(=O)CNCCCCCOc2ccc1cc2` [Example 6], for which the IC50 in series [1] was 5 to 50 nM.

The compound `CCON=C1CC(=O)N=C(NC(=O)OC(C)(C)C)NCc2cc(Cl)c(c(Cl)c2)NC(=O)CN(C(=O)OC(C)(C)C)CCC=CCOc2ccc1cc2` had a ring closure, yield of all isomers in series [2] (from C=CCCN(CC(=O)Nc1c(Cl)cc(CNC(=NC(=O)CC(=NOCC)c2ccc(OCC=C)cc2)NC(=O)OC(C)(C)C)cc1Cl)C(=O)OC(C)(C)C, 3.0 mM, 4.0 h) of 69.1%.

As to `CCON=C1CC(=O)N=C(N)NCc2cc(Cl)c(c(Cl)c2)NC(=O)CNCCCCC=CCOc2ccc1cc2` [Example 10, 4-Amino-26,29-dichloro-13-oxa-3,5,21,24-tetraazatricyclo-[23.2.2.2^9,12]hentriaconta-1(27),4,9,11,15,25,28,30-octaene-6,8,23-trione 8-(O-ethyloxime)], the IC50 in series [1] is < 5 nM.

As for `CCON=C1CC(=O)/N=C(\N)NCc2cc(Cl)c(c(Cl)c2)NC(=O)CNCC=CCOc2ccc1cc2` (single isomer, unassigned; isomer a) [Example 1, Isomer A of 4-amino-23,26-dichloro-13-oxa-3,5,18,21-tetraazatricyclo[20.2.2.2^9,12]octacosa-1(24),4,9,11,15,22,25,27-octaene-6,8,20-trione 8-(O-ethyloxime)], the IC50 in series [1] was > 50 nM.

For the compound `CCON=C1CC(=O)N=C(NC(=O)OC(C)(C)C)NCc2cc(Cl)c(c(Cl)c2)NC(=O)CN(C(=O)OC(C)(C)C)CCCCC=CCOc2ccc1cc2`, the ring closure, yield of all isomers in series [2] (from C=CCCCCN(CC(=O)Nc1c(Cl)cc(CNC(=NC(=O)CC(=NOCC)c2ccc(OCC=C)cc2)NC(=O)OC(C)(C)C)cc1Cl)C(=O)OC(C)(C)C, 2.93 mM, 2.0 h) was found to be 80.5%.

`CCON=C1CC(=O)/N=C(\N)NCc2cc(Cl)c(c(Cl)c2)NC(=O)CNCC=CCOc2ccc1cc2` (single isomer, unassigned; isomer b) [Example 2, Isomer B of 4-amino-23,26-dichloro-13-oxa-3,5,18,21-tetraazatricyclo-[20.2.2.2^9,12]octacosa-1(24),4,9,11,15,22,25,27-octaene-6,8,20-trione 8-(O-ethyloxime)]: in series [1], the IC50 was > 50 nM.

Consider `CCON=C1CC(=O)N=C(N)NCc2cc(Cl)c(c(Cl)c2)NC(=O)CNCCCCCCCOc2ccc1cc2` [Example 11, 4-Amino-26,29-dichloro-13-oxa-3,5,21,24-tetraazatricyclo-[23.2.2.2^9,12]hentriaconta-1(27),4,9,11,25,28,30-heptaene-6,8,23-trione 8-(O-ethyloxime)], for which the IC50 in series [1] is < 5 nM.

For `CCON=C1CC(=O)N=C(N)NCc2cc(Cl)c(c(Cl)c2)NC(=O)CNCCCC=CCOc2ccc1cc2` (single isomer, unassigned; isomer b) [Example 8, Isomer B of 4-amino-25,28-dichloro-13-oxa-3,5,20,23-tetraazatricyclo-[22.2.2.29,12]triaconta-1(26),4,9,11,15,24,27,29-octaene-6,8,22-trione 8-(O-ethyloxime)], in series [1], the IC50 was < 5 nM.

Compound `CCON=C1CC(=O)N=C(NC(=O)OC(C)(C)C)NCc2cc(Cl)c(c(Cl)c2)NC(=O)CN(C(=O)OC(C)(C)C)CCCC=CCOc2ccc1cc2` displayed a ring closure, yield of all isomers in series [2] (from C=CCCCN(CC(=O)Nc1c(Cl)cc(CNC(=NC(=O)CC(=NOCC)c2ccc(OCC=C)cc2)NC(=O)OC(C)(C)C)cc1Cl)C(=O)OC(C)(C)C, 2.62 mM, 1.5 h) of 82.9%.

Regarding `CCON=C1CC(=O)N=C(N)NCc2cc(Cl)c(c(Cl)c2)NC(=O)CNCCCC=CCOc2ccc1cc2` (single isomer, unassigned; isomer a) [Example 7, Isomer A of 4-amino-25,28-dichloro-13-oxa-3,5,20,23-tetraazatricyclo[22.2.2.29,12]triaconta-1(26),4,9,11,15,24,27,29-octaene-6,8,22-trione 8-(O-ethyloxime)], the IC50 in series [1] was < 5 nM.

On to `CCON=C1CC(=O)N=C(NC(=O)OC(C)(C)C)NCc2cc(Cl)c(c(Cl)c2)NC(=O)CN(C(=O)OC(C)(C)C)CC=CCOc2ccc1cc2`, for which, in series [2] (from C=CCOc1ccc(C(CC(=O)N=C(NCc2cc(Cl)c(NC(=O)CN(CC=C)C(=O)OC(C)(C)C)c(Cl)c2)NC(=O)OC(C)(C)C)=NOCC)cc1, 2.85 mM, 4.0 h), the ring closure, yield of all isomers was found to be 82.8%.

In the case of `CCON=C1CC(=O)N=C(N)NCc2cc(Cl)c(c(Cl)c2)NC(=O)CNCCC=CCOc2ccc1cc2` (single isomer, unassigned; isomer a) [Example 4, Isomer A of 4-amino-24,27-dichloro-13-oxa-3,5,19,22-tetraazatricyclo-[21.2.2.29,12]nonacosa-1(25),4,9,11,15,23,26,28-octaene-6,8,21-trione 8-(O-ethyloxime)], in series [1], the IC50 is 5 to 50 nM.

In the case of `CCON=C1CC(=O)N=C(N)NCc2cc(Cl)c(c(Cl)c2)NC(=O)CNCCC=CCOc2ccc1cc2` (single isomer, unassigned; isomer b) [Example 5, Isomer B of 4-amino-24,27-dichloro-13-oxa-3,5,19,22-tetraazatricyclo-[21.2.2.29,12]nonacosa-1(25),4,9,11,15,23,26,28-octaene-6,8,21-trione 8-(O-ethyloxime)], the IC50 in series [1] was 5 to 50 nM.

For `CCON=C1CC(=O)N=C(N)NCc2cc(Cl)c(c(Cl)c2)NC(=O)CNCCCCCCOc2ccc1cc2` [Example 9, 4-Amino-25,28-dichloro-13-oxa-3,5,20,23-tetraazatricyclo[22.2.2.2^9,12]-triaconta-1(26),4,9,11,24,27,29-heptaene-6,8,22-trione 8-(O-ethyloxime)], in series [1], the IC50 was < 5 nM.

For `CCON=C1CC(=O)N=C(N)NCc2cc(Cl)c(c(Cl)c2)NC(=O)CNCCCCOc2ccc1cc2` [Example 3, 4-Amino-23,26-dichloro-13-oxa-3,5,18,21-tetraazatricyclo[20.2.2.2^9,12]-octacosa-1(24),4,9,11,22,25,27-heptaene-6,8,20-trione 8-(O-ethyloxime)], the IC50 in series [1] was in the range of 5 to 50 nM.
